# According to patent US12358886B2, “Heterocyclic compounds for use in the treatment of cancer” (Artios Pharma Limited, priority 2019, dated 2025):
# Biological target: Polθ protein (amino acids 2-2590) (Homo sapiens, UniProt O75417)
# Assay: Polθ full length enzyme potency assay (PicoGreen)
# Details: Polθ IC50 (nM), full length N-His, C-term FLAG tagged Polθ, PicoGreen fluorescence, 12 point concentration response
# Description: Polθ Full Length Enzyme Potency Assay
# PicoGreen assay was used to measure the ability of compounds to inhibit the activity of Polθ in vitro. […] DMSO concentration was maintained at 1% by back filling with DMSO solution. […] This was dispensed into each well of the compound plate using a VIAFLO 16 channel manual pipette (Integra) and pre-incubated at rt for 30 min. 3 μL of 2× working solution of dNTPs (40 μM) (dATP, dCTP, dGTP, dTTP; Sigma D6500, D4635, D4010, T0251) diluted in assay buffer was then added and the reaction incubated for 60 min at rt. The reaction was stopped by addition of 10 mM EDTA, 25 mM Tris pH 7.5 and 1:200 dilution of PicoGreen dye (Invitrogen P7581).
# Chain of Polθ protein (amino acids 2-2590) (O75417 2-2590): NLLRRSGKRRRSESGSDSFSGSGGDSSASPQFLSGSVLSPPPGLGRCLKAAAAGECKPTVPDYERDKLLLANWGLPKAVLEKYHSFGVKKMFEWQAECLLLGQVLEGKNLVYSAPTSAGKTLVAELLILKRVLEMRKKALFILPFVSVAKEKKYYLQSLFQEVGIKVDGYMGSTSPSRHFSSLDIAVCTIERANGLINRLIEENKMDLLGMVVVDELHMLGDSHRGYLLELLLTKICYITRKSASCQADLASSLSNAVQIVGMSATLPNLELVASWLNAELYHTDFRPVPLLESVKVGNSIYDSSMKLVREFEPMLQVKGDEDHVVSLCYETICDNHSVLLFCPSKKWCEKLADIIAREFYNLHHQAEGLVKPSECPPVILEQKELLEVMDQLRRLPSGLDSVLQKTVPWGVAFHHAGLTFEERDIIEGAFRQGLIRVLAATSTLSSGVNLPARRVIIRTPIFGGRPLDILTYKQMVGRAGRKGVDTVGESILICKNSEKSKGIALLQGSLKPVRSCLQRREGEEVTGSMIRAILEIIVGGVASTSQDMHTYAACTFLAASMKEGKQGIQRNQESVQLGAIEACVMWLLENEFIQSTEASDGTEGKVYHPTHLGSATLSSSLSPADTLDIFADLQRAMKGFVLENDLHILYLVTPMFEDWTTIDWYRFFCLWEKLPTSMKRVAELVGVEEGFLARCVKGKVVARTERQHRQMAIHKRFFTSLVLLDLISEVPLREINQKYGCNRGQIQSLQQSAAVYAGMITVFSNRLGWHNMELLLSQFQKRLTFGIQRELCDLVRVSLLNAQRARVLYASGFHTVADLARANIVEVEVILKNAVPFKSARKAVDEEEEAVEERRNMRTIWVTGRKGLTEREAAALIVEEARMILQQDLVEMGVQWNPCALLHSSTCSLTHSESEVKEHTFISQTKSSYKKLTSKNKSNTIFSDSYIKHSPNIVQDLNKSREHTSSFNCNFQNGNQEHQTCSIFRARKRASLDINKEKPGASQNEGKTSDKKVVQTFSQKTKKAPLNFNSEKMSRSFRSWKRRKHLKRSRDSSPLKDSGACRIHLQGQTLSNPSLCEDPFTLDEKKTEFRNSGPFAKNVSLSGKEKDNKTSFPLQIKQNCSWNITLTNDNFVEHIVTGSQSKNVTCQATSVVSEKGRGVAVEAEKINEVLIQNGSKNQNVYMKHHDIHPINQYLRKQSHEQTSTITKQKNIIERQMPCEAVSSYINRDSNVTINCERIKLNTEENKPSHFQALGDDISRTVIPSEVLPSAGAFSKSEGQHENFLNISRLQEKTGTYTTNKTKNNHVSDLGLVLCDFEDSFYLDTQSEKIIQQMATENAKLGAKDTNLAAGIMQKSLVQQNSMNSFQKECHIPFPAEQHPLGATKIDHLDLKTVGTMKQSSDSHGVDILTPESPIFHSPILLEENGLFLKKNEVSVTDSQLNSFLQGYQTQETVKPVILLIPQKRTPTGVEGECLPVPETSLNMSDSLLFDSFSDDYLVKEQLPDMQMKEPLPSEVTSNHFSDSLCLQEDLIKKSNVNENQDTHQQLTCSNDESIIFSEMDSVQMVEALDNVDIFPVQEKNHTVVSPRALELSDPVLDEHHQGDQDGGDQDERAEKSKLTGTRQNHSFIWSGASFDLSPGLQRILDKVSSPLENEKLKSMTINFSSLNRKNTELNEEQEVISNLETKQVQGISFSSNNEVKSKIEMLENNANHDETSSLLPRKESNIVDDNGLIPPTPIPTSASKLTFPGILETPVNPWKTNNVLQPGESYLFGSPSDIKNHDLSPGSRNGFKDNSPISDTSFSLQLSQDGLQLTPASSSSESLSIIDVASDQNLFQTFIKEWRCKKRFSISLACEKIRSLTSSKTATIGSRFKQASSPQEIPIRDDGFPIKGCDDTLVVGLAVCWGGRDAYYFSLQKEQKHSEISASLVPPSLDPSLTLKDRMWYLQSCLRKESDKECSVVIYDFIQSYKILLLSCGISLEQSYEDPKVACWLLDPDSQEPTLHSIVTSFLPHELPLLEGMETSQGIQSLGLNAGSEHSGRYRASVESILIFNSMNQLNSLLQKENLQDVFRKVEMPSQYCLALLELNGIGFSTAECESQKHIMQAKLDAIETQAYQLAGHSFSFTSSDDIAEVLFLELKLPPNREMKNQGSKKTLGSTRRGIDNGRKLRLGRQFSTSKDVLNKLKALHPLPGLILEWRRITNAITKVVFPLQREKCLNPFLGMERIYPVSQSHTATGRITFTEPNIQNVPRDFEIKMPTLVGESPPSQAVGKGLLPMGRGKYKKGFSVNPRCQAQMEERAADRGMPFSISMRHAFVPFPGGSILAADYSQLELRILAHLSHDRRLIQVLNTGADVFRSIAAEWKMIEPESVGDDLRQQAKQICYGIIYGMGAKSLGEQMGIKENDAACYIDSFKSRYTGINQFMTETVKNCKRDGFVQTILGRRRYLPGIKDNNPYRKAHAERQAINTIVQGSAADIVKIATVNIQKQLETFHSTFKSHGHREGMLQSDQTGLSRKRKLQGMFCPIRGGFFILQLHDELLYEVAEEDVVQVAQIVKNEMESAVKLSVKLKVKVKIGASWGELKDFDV
row,SMILES,IC50
1,"Cc1cc(C(F)(F)F)cc(N2C(=O)N(CCO)C[C@H]2C(=O)N(C)c2ccc(F)c(Cl)c2)n1 [Example 193, (S)—N-(3-Chloro-4-fluorophenyl)-1-(2-hydroxyethyl)-N-methyl-3-(6-methyl-4-(trifluoromethyl)pyridin-2-yl)-2-oxoimidazolidine-4-carboxamide]",6 nM
2,"Cc1cc(C(F)(F)F)cc(N2C(=O)N(CCN3CCOCC3)C[C@H]2C(=O)N(C)c2ccc(F)c(Cl)c2)n1 [Example 194, (S)-N-(3-Chloro-4-fluorophenyl)-N-methyl-3-(6-methyl-4-(trifluoromethyl)pyridin-2-yl)-1-(2-morpholinoethyl)-2-oxoimidazolidine-4-carboxamide]",7 nM
3,"Cc1cc(C(F)(F)F)cc(N2C(=O)N(CCN3CCOCC3)C[C@H]2C(=O)N(C)c2ccc(F)c(Cl)c2F)n1 [Example 195, (S)-N-(3-Chloro-2,4difluorophenyl)-N-methyl-3-(6-methyl-4-(trifluoromethyl)pyridin-2-yl)-1-(2-morpholinoethyl)-2-oxoimidazolidine-4-carboxamide]",4 nM
4,"Cc1cc(C(F)(F)F)cc(N2C(=O)N(CCN3CC[C@H](O)C3)C[C@H]2C(=O)N(C)c2ccc(F)c(Cl)c2)n1 [Example 196, (S)-N-(3-Chloro-4-fluorophenyl)-1-(2-((S)-3-hydroxypyrrolidin-1-yl)ethyl)-N-methyl-3-(6-methyl-4-(trifluoromethyl)pyridin-2-yl)-2-oxoimidazolidine-4-carboxamide]",24 nM
5,"Cc1cc(C(F)(F)F)cc(N2C(=O)N(CCN3CC[C@@H](O)C3)C[C@H]2C(=O)N(C)c2ccc(F)c(Cl)c2)n1 [Example 197, (S)-N-(3-Chloro-4-fluorophenyl)-1-(2-((R)-3-hydroxypyrrolidin-1-yl)ethyl)-N-methyl-3-(6-methyl-4-(trifluoromethyl)pyridin-2-yl)-2-oxoimidazolidine-4-carboxamide]",19 nM
6,"Cc1cc(C(F)(F)F)cc(N2C(=O)N(CCN3CCC3)C[C@H]2C(=O)N(C)c2ccc(F)c(Cl)c2)n1 [Example 200, (S)-1-(2-(Azetidin-1-yl)ethyl)-N-(3-chloro-4-fluorophenyl)-N-methyl-3-(6-methyl-4-(trifluoromethyl)pyridin-2-yl)-2-oxoimidazolidine-4-carboxamide]",12 nM
7,"Cc1cc(C(F)(F)F)cc(N2C(=O)N(CCN3CCC3)C[C@H]2C(=O)N(C)c2ccc(F)c(Cl)c2F)n1 [Example 201, (S)-1-(2-(Azetidin-1-yl)ethyl)-N-(3-chloro-2,4-difluorophenyl)-N-methyl-3-(6-methyl-4-(trifluoromethyl)-pyridin-2-yl)-2-oxoimidazolidine-4-carboxamide]",26 nM
8,"Cc1cc(C(F)(F)F)cc(N2C(=O)N(CCN3CC(O)C3)C[C@H]2C(=O)N(C)c2ccc(F)c(Cl)c2F)n1 [Example 202, (S)-N-(3-Chloro-2,4-difluorophenyl)-1-(2-(3-hydroxyazetidin-1-yl)ethyl)-N-methyl-3-(6-methyl-4-(trifluoromethyl)pyridin-2-yl)-2-oxoimidazolidine-4-carboxamide]",7 nM
9,"Cc1cc(C(F)(F)F)cc(N2C(=O)N(CCN3CCC3CO)C[C@H]2C(=O)N(C)c2ccc(F)c(Cl)c2F)n1 (stereo partly drawn) [Example 203, (4S)-N-(3-Chloro-2,4-difluoro-phenyl)-1-(2-(2-(hydroxymethyl)-azetidin-1-yl)-ethyl)-N-methyl-3-(6-methyl-4-(trifluoromethyl)pyridin-2-yl)-2-oxoimidazolidine-4-carboxamide]",10 nM
10,"CC(=O)N1CCN(CCN2C[C@@H](C(=O)N(C)c3ccc(F)c(Cl)c3F)N(c3cc(C(F)(F)F)cc(C)n3)C2=O)CC1 [Example 204, (S)-1-(2-(4-Acetylpiperazin-1-yl)ethyl)-N-(3-chloro-2,4-difluoro-phenyl)-N-methyl-3-(6-methyl-4-(trifluoromethyl)pyridin-2-yl)-2-oxoimidazolidine-4-carboxamide]",3 nM
11,"Cc1cc(C(F)(F)F)cc(N2C(=O)N(CCN3CC[C@H](F)C3)C[C@H]2C(=O)N(C)c2ccc(F)c(Cl)c2F)n1 [Example 205, (S)-N-(3-Chloro-2,4-difluorophenyl)-1-(2-((S)-3-fluoropyrrolidin-1-yl)ethyl)-N-methyl-3-(6-methyl-4-(trifluoromethyl)pyridin-2-yl)-2-oxoimidazolidine-4-carboxamide]",6 nM
12,"Cc1cc(C(F)(F)F)cc(N2C(=O)N(CCN3CCC(F)(F)C3)C[C@H]2C(=O)N(C)c2ccc(F)c(Cl)c2F)n1 [Example 206, (S)-N-(3-Chloro-2,4-difluorophenyl)-1-(2-(3,3-difluoropyrrolidin-1-yl)ethyl)-N-methyl-3-(6-methyl-4-(trifluoromethyl)pyridin-2-yl)-2-oxoimidazolidine-4-carboxamide]",15 nM
13,"CC(=O)N(C)C1CCN(CCN2C[C@@H](C(=O)N(C)c3ccc(F)c(Cl)c3F)N(c3cc(C(F)(F)F)cc(C)n3)C2=O)C1 (stereo partly drawn) [Example 207, (4S)-N-(3-Chloro-2,4-difluoro-phenyl)-N-methyl-3-(6-methyl-4-(trifluoromethyl)pyridin-2-yl)-1-(2-(3-(N-methylacetamido)-pyrrolidin-1-yl)ethyl)-2-oxoimidazolidine-4-carboxamide]",7 nM
14,"Cc1cc(C(F)(F)F)cc(N2C(=O)N(CCN3CCS(=O)(=O)CC3)C[C@H]2C(=O)N(C)c2ccc(F)c(Cl)c2F)n1 [Example 208, (S)-N-(3-Chloro-2,4-difluorophenyl)-1-(2-(1,1-dioxidothiomorpholino)-ethyl)-N-methyl-3-(6-methyl-4-(trifluoromethyl)pyridin-2-yl)-2-oxoimidazolidine-4-carboxamide]",9 nM
15,"Cc1cc(C(F)(F)F)cc(N2C(=O)N(CCN3CCN(CCO)CC3)C[C@H]2C(=O)N(C)c2ccc(F)c(Cl)c2F)n1 [Example 209, (S)-N-(3-Chloro-2,4-difluorophenyl)-1-(2-(4-(2-hydroxyethyl)piperazin-1-yl)ethyl)-N-methyl-3-(6-methyl-4-(trifluoromethyl)pyridin-2-yl)-2-oxoimidazolidine-4-carboxamide]",8 nM
16,"Cc1cc(C(F)(F)F)cc(N2C(=O)N(CCN3CCN(C)C(=O)C3)C[C@H]2C(=O)N(C)c2ccc(F)c(Cl)c2F)n1 [Example 210, (S)-N-(3-Chloro-2,4-difluorophenyl)-N-methyl-1-(2-(4-methyl-3-oxopiperazin-1-yl)ethyl)-3-(6-methyl-4-(trifluoromethyl)pyridin-2-yl)-2-oxoimidazolidine-4-carboxamide]",7 nM
17,"Cc1cc(C(F)(F)F)cc(N2C(=O)N(CCN3CCC(C#N)CC3)C[C@H]2C(=O)N(C)c2ccc(F)c(Cl)c2F)n1 [Example 211, (S)-N-(3-Chloro-2,4-difluorophenyl)-1-(2-(4-cyanopiperidin-1-yl)ethyl)-N-methyl-3-(6-methyl-4-(trifluoromethyl)pyridin-2-yl)-2-oxoimidazolidine-4-carboxamide]",5 nM
18,"Cc1cc(C(F)(F)F)cc(N2C(=O)N(CCS(C)(=N)=O)C[C@H]2C(=O)N(C)c2ccc(F)c(Cl)c2F)n1 (stereo partly drawn) [Example 212, (4S)—N-(3-Chloro-2,4-difluorophenyl)-N-methyl-3-(6-methyl-4-(trifluoromethyl)pyridin-2-yl)-1-(2-(S-methylsulfonimidoyl)ethyl)-2-oxoimidazolidine-4-carboxamide]",6 nM
19,"Cc1cc(C(F)(F)F)cc(N2C(=O)N(CCS(C)(=N)=O)C[C@H]2C(=O)N(C)c2ccc(F)c(Cl)c2)n1 (stereo partly drawn) [Example 213, (4S)—N-(3-Chloro-4-fluorophenyl)-N-methyl-3-(6-methyl-4-(trifluoromethyl)pyridin-2-yl)-1-(2-(S-methylsulfonimidoyl)ethyl)-2-oxoimidazolidine-4-carboxamide]",26 nM
20,"Cc1cc(C(F)(F)F)cc(N2C(=O)N(CC(O)CN(C)C)C[C@H]2C(=O)N(C)c2ccc(F)c(Cl)c2F)n1 (stereo partly drawn) [Example 214, (4S)—N-(3-Chloro-2,4-difluorophenyl)-1-(3-(dimethylamino)-2-hydroxypropyl)-N-methyl-3-(6-methyl-4-(trifluoromethyl)pyridin-2-yl)-2-oxoimidazolidine-4-carboxamide]",11 nM
21,"Cc1cc(C(F)(F)F)cc(N2C(=O)N(CC(O)CN3CCC(F)(F)C3)C[C@H]2C(=O)N(C)c2ccc(F)c(Cl)c2F)n1 (stereo partly drawn) [Example 216, (4S)—N-(3-Chloro-2,4-difluorophenyl)-1-(3-(3,3-difluoropyrrolidin-1-yl)-2-hydroxy-propyl)-N-methyl-3-(6-methyl-4-(trifluoromethyl)pyridin-2-yl)-2-oxoimidazolidine-4-carboxamide]",4 nM
22,"Cc1cc(C(F)(F)F)cc(N2C(=O)N(CC(O)CN3CCOCC3)C[C@H]2C(=O)N(C)c2ccc(F)c(Cl)c2F)n1 (stereo partly drawn) [Example 217, (4S)—N-(3-Chloro-2,4-difluorophenyl)-1-(2-hydroxy-3-morpholinopropyl)-N-methyl-3-(6-methyl-4-(trifluoromethyl)pyridin-2-yl)-2-oxoimidazolidine-4-carboxamide]",7 nM
23,"Cc1cc(C(F)(F)F)cc(N2C(=O)N(CC3CNCCO3)C[C@H]2C(=O)N(C)c2ccc(F)c(Cl)c2F)n1 (stereo partly drawn) [Example 218, (4S)—N-(3-Chloro-2,4-difluorophenyl)-N-methyl-3-(6-methyl-4-(trifluoromethyl)pyridin-2-yl)-1-(morpholin-2-ylmethyl)-2-oxoimidazolidine-4-carboxamide]",16 nM
24,"Cc1cc(C(F)(F)F)cc(N2C(=O)N(CC3CN(C)CCO3)C[C@H]2C(=O)N(C)c2ccc(F)c(Cl)c2F)n1 (stereo partly drawn) [Example 219, (4S)—N-(3-Chloro-2,4-difluorophenyl)-N-methyl-3-(6-methyl-4-(trifluoromethyl)pyridin-2-yl)-1-((4-methylmorpholin-2-yl)methyl)-2-oxoimidazolidine-4-carboxamide]",11 nM
25,"Cc1cc(C(F)(F)F)cc(N2C(=O)N(CCCN3CCNCC3)C[C@H]2C(=O)N(C)c2ccc(F)c(Cl)c2F)n1 [Example 220, (S)—N-(3-Chloro-2,4-difluorophenyl)-N-methyl-3-(6-methyl-4-(trifluoromethyl)pyridin-2-yl)-2-oxo-1-(3-(piperazin-1-yl)propyl)imidazolidine-4-carboxamide]",11 nM
